1 compound from patent US11975095B2, “Callus lysate comprising high content of callus metabolite and preparation method thereof” (BIOSPECTRUM, INC., priority 2020, dated 2024) can be followed below.

A short description of this assay: Anti-oxidation: DPPH free radical scavenging. Conditions: positive control at 400 μg/ml. As to the method:
The antioxidant activity was evaluated by measuring the ability of scavenging a free radical, DPPH (1,1-diphenyl-2-picrylhydrazyl). DPPH, a radical with a color, was used to directly determine the radical scavenging ability of the sample.
50 μl of each sample of Examples 1 to 13 and Comparative Examples 1 to 5 was mixed with 1 ml of a 100 μM DPPH solution. The resultant mixture was subjected to reaction and incubation at 20° C. (room temperature) at 30 minutes. Then, the amount of the remaining DPPH was determined through the absorbance measurement at 517 nm.
Upon completion of the reaction, the free radical scavenging activity (%) of the sample was calculated according to Equation 3 below. In this regard, the positive control was 400 μg/ml of ascorbic acid, and the blank was purified water. Radical Scavenging Ability (%)={1−(absorbance of sample-added group/absorbance of sample-free group)×100} [Equation 3]
(DPPH is a stable violet radical that fades when it is reduced.)

`O=C1O[C@H]([C@@H](O)CO)C(O)=C1O` [Ascorbic acid]: the “Free radical scavenging ability” value turned out to be 80.7%.
